Measured values taken from patent publication US10646469B2, “Substituted indole derivatives as dengue viral replication inhibitors” (Janssen Pharmaceuticals, Inc., priority 2016, dated 2020).
pEC50: −log10 of the molar value. Read-outs that look alike come from different tables or passages of the source.

Assays:
[1] = analogous DENV-2 antiviral assay, reported activity; cited from earlier work
DENV-2 = settings: analogous DENV-2 antiviral assay, reported activity; cited from earlier work
[2] = Toxicity on the same plates (ATPlite cell viability); settings: African green monkey, CC50, Vero cells, same plates as DENV-2 antiviral assay
DENV-2 16681 strain = test: DENV-2 antiviral assay (eGFP-labeled virus in Vero cells); assay type: cell-based, Dengue virus; settings: Dengue virus, DENV2, Vero, 72 h, DENV-2 16681 eGFP, MOI 0.5, 3 days
Summary of the method: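 Vero cells (2500/well) pre-plated with compound (9-step 5-fold series), infected next day with eGFP-labeled DENV-2 16681 at MOI 0.5 in MEM with 2% FCS; 3 days at 37° C. eGFP fluorescence read at 488 nm; inhibition versus virus and cell controls, EC50 by linear interpolation.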

Compound	CC50 [1] [nM]	pEC50 (DENV-2)	CC50 [2] [nM]	pEC50 (DENV-2 16681 strain)	melting point [°C]
COc1cc(NC(C(=O)c2c[nH]c3ccccc23)c2ccc(F)cc2)cc(OCCO)c1 (centres unmarked) [(350) of WO-2013/045516]	46000	8.00			
COc1cc(NC(C(=O)c2c[nH]c3c(C)cc(OC(F)(F)F)cc23)c2ccc(Cl)cc2OC)cc(OCCO)c1 (racemic) [Compound 16, 2-(4-chloro-2-methoxyphenyl)-2-((3-(2-hydroxyethoxy)-5-methoxyphenyl)amino)-1-(7-methyl-5-(trifluoromethoxy)-1H-indol-3-yl)ethanone]			2500	9.72	105
COc1cc(NC(C(=O)c2c[nH]c3cc(OC)c(OC(F)(F)F)cc23)c2ccc(F)cc2OC)cc(OCCO)c1 (racemic) [Compound 6, 2-(4-fluoro-2-methoxyphenyl)-2-((3-(2-hydroxyethoxy)-5-methoxyphenyl)amino)-1-(6-methoxy-5-(trifluoromethoxy)-1H-indol-3-yl)ethanone]			3600	9.08	178
COc1cc(NC(C(=O)c2c[nH]c3ccc(C(F)(F)F)cc23)c2ccc(F)cc2OC)cc(OCCO)c1 (racemic) [Compound 1, 2-(4-fluoro-2-methoxyphenyl)-2-((3-(2-hydroxyethoxy)-5-methoxyphenyl)amino)-1-(5-(trifluoromethyl)-1H-indol-3-yl)ethanone]			5500	8.92	132
COc1cc(NC(C(=O)c2c[nH]c3cc(OC)c(C(F)(F)F)cc23)c2ccc(F)cc2OC)cc(OCCO)c1 (racemic) [Compound 2, 2-(4-fluoro-2-methoxyphenyl)-2-((3-(2-hydroxyethoxy)-5-methoxyphenyl)amino)-1-(6-methoxy-5-(trifluoromethyl)-1H-indol-3-yl)ethanone]			4800	9.15	174
